From patent publication US20230286970A1, “NOVEL OXADIAZOLE-BASED SELECTIVE HDAC6 INHIBITORS” (ITALFARMACO S.P.A., priority 2020, published 2023)

Assays:
recombinant human HDAC6 = recombinant human HDAC6 (Homo sapiens (Human), UniProt Q9UBN7); assay: Enzymatic screening, HDAC6 inhibition (fluorogenic FdL_G substrate); format: biochemical
How it was run: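 Enzyme was preincubated with compound (8 doses, triplicate, 1% DMSO) in 25 mM Tris-HCl pH 8, 130 mM NaCl, 0.05% Tween-20, 10% glycerol, with BSA. A FLUOR DE LYS-Green substrate was then added, and fluorescence was read after developer plus 2 μM TSA.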

recombinant human HDAC1 = recombinant human HDAC1 (Homo sapiens (Human), UniProt Q13547); assay: Enzymatic screening, HDAC1 inhibition (fluorogenic FdL_G substrate); format: biochemical
How it was run: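 Recombinant human HDAC1 inhibition was measured fluorometrically using the FLUOR DE LYS-Green (FdL_G) substrate. Compounds at 8 doses (1% DMSO final) in Tris-HCl pH 8 buffer with NaCl, Tween-20 and glycerol were preincubated in triplicate with enzyme and 1 mg/mL BSA, then given substrate. Developer I plus 2 μM TSA was added, and fluorescence read after 25 minutes in the dark.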

Stability in rat plasma = conditions: after 4 hours, 37° C.
[1] = Stability in human plasma; conditions: after 4 hours, 37° C.
[2] = Stability to Phase I metabolism in rat S9 liver fraction; conditions: after 90 minutes, 37° C.
Procedure: Test compounds were incubated in rat and human liver S9 fraction at 37° C. up to 90 minutes in order to evaluate their stability to Phase I metabolism by hepatic enzymes. Each test compound was incubated at μM concentration (50 μM when the samples were analysed by UV/HPLC, 1 or 2 μM when the samples were analysed by LC-MS/MS) with S9 fraction (protein content 2 mg/m L) in 100 mM phosphate buffer (pH 7.4), 3.3 mM MgCl2 and 1.3 mM NADPH for 0, 10, 30, 60 and 90 minutes at 37° C. in a thermostated oscillating bath. The reaction was stopped placing samples on ice bath and adding acidified acetonitrile. After centrifugation (10 minutes at 14000 rpm) an aliquot of the supernatant was diluted with water, filtered with 0.45 μm regenerated cellulose syringe filters and injected in HPLC-UV or in LC-MS/MS. The percentage of the remaining amount at the various incubation times with respect to the initial amount were calculated.

[3] = Stability to Phase I metabolism in human S9 liver fraction; conditions: after 90 minutes, 37° C.

Sequence of recombinant human HDAC1 (Q13547 whole entry): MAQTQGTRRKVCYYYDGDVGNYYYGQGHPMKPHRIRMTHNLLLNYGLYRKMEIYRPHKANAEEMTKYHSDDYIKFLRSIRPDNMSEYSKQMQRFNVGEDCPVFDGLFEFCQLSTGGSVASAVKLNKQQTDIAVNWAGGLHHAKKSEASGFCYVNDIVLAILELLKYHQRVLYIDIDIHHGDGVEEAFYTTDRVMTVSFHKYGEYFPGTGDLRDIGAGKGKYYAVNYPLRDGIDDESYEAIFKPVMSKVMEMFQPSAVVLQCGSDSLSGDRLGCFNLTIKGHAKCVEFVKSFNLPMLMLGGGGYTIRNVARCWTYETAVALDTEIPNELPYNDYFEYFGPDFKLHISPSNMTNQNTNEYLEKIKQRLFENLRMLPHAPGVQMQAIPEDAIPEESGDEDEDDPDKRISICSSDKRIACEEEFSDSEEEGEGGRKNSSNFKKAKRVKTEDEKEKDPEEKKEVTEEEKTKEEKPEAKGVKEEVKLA
Sequence of recombinant human HDAC6 (Q9UBN7 whole entry): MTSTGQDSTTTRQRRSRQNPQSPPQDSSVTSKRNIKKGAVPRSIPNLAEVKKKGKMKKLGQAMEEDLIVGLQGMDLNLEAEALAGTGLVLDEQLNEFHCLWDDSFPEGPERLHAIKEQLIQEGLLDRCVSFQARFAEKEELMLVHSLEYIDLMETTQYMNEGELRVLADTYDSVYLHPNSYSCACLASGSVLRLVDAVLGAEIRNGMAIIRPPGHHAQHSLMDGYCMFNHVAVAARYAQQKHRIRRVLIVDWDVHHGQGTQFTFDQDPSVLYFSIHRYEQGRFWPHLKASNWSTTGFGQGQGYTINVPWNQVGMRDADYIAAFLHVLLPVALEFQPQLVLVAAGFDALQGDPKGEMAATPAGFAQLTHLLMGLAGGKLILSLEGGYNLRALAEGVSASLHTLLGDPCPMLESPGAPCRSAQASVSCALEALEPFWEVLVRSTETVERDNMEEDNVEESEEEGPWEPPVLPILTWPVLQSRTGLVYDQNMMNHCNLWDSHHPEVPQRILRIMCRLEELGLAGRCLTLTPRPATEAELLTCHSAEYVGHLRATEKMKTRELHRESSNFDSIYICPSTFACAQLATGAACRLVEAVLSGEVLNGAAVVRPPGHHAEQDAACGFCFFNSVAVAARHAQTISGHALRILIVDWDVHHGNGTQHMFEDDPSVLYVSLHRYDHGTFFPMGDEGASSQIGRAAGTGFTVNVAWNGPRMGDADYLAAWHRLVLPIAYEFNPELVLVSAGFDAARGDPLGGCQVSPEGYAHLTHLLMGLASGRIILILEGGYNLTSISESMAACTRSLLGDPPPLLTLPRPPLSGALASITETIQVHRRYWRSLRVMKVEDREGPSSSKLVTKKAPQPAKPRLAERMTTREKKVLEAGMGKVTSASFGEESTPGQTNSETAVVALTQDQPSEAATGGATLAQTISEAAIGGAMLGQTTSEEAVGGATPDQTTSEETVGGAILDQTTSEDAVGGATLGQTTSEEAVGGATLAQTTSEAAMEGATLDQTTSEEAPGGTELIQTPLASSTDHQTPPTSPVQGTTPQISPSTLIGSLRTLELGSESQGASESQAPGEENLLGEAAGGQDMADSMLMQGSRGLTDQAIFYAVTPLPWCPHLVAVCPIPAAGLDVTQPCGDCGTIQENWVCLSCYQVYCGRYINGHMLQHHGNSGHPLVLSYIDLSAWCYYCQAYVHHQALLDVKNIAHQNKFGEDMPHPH

Row | Compound | IC50 (recombinant human HDAC6) [nM] | IC50 (recombinant human HDAC1) [nM] | residual percentage in RAT PLASMA (Stability in rat plasma) [%] | residual percentage in HUMAN PLASMA [1] [%] | residual percentage in RAT S9 FRACTION [2] [%] | residual percentage in HUMAN S9 FRACTION [3] [%]
1 | FC(F)c1nnc(-c2ccc(Cn3nnc(-c4ccc5ccccc5n4)n3)cc2)o1 [compound 113, 2-(difluoromethyl)-5-(4-((5-(quinolin-2-yl)-2H-tetrazol-2-yl)methyl)phenyl)-1,3,4-oxadiazole] | 43 | > 200000 | 92 | 75 | 85 | 76
2 | Cc1ncc(-c2nnn(Cc3ccc(-c4nnc(C(F)F)o4)cc3)n2)cc1N [compound 65, 5-(2-(4-(5-(difluoromethyl)-1,3,4-oxadiazol-2-yl)benzyl)-2H-tetrazol-5-yl)-2-methylpyridin-3-amine] | 28 | > 200000 | 76 | 94 | 35 | 99
3 | COc1ncccc1-c1cn(Cc2ccc(-c3nnc(C(F)F)o3)cc2)nn1 [compound 131, 2-(difluoromethyl)-5-(4-((4-(2-methoxypyridin-3-yl)-1H-1,2,3-triazol-1-yl)methyl)phenyl)-1,3,4-oxadiazole] | 51 | > 200000 | 82 | 92 | 58 | 83
4 | O=C1Nc2ccc(-c3cn(Cc4ccc(-c5nnc(C(F)F)o5)cn4)nn3)cc2NC12CCNCC2 [compound 36] | 16 | > 200000 | 76 | 78 | 94 | 89
5 | O=C1NCc2ccc(-c3nnn(Cc4ccc(-c5nnc(C(F)F)o5)c(F)c4)n3)cc21 [compound 97, 6-(2-(4-(5-(difluoromethyl)-1,3,4-oxadiazol-2-yl)-3-fluorobenzyl)-2H-tetrazol-5-yl)isoindolin-1-one] | 38 | > 200000 | 96 | 76 | 95 | 84
6 | NC(=O)c1cc(-c2nnn(Cc3ccc(-c4nnc(C(F)F)o4)cc3)n2)cnc1N [compound 76, 2-amino-5-(2-(4-(5-(difluoromethyl)-1,3,4-oxadiazol-2-yl)benzyl)-2H-tetrazol-5-yl)nicotinamide] | 32 | > 200000 | 73 | 74 | 89 | 53
7 | O=C(Nc1cccc(-c2cn(Cc3ccc(-c4nnc(C(F)F)o4)cn3)cn2)c1)N1CCOCC1 [compound 264, N-(3-(1-((5-(5-(difluoromethyl)-1,3,4-oxadiazol-2-yl)pyridin-2-yl)methyl)-1H-imidazol-4-yl)phenyl)morpholine-4-carboxamide] | 19 | > 200000 | 94 | 80 | 92 | 93
8 | O=C(Nc1ccc(-c2nnc(Cc3ccc(-c4nnc(C(F)F)o4)cn3)s2)cn1)C(F)F [Compd. 102, N-(5-(5-((5-(5-(difluoromethyl)-1,3,4-oxadiazol-2-yl)pyridin-2-yl)methyl)-1,3,4-thiadiazol-2-yl)pyridin-2-yl)-2,2-difluoroacetamide] | 39 | > 200000 | 90 | 92 | 56 | 82
